Laboratory results: US8524690B2, “DNA polymerase inhibitors composition and methods” (The Trustees of the University of Pennsylvania, priority 2007, dated 2013)

What was measured:
[1] = cited from earlier work
verruca vulgaris (warts) = assay: Topical 3% cidofovir applied to the face for treatment of verruca vulgaris (warts); format: in vivo, human; settings: 3% topical ointment, once a day, one patient
Method: (§1) A 3% topical ointment of cidofovir was prepared by mixing 3 g of cidofovir in 97 g of petrolatum. A 3% topical preparation of cidofovir was applied to the beard area of a patient. The formulation was applied by the patient once a day to the affected areas of the face for the treatment of verruca vulgaris (warts). […] After 4-8 weeks the patient had alopecia in the areas of the face where the medication was applied. This was the only hair bearing area that the patient applied the medication to. The warts resolved in approximately 2-3 months.

hair of the beard area = assay: Topical 3% cidofovir ointment applied once a day to beard area of a patient: alopecia and local tolerability; format: in vivo, human
Method: A 3% topical ointment of cidofovir was prepared by mixing 3 g of cidofovir in 97 g of petrolatum.
as §1, with “A” for “A 3% topical ointment of cidofovir was prepared by mixing 3 g of cidofovir in 97 g of petrolatum. A”
The hair cycle time of the face is the shortest on the body. At any one point in time, up to 80% of the hair on the face (i.e. the beard area) is in the active growth phase.

SMILES | oral bioavailability [1] | time until warts resolved (verruca vulgaris (warts)) | time until alopecia in the areas of the face where the medication was applied (hair of the beard area; 3% topical ointment in petrolatum, once a day, beard area, one patient) | local reaction to application (hair of the beard area; 3% topical ointment, once a day, face, application discontinued for several days then resumed) | hair regrowth upon discontinuation of topical cidofovir (hair of the beard area; after stopping 3% topical cidofovir, beard area)
Nc1nc2c(ncn2COCCO)c(=O)[nH]1 [Acyclovir] | low oral bioavailability |  |  |  | 
Nc1ccn(C[C@@H](CO)OCP(=O)(O)O)c(=O)n1 [cidofovir, (S)-1-[3-hydroxy-2-(phosphonylmethoxy)propyl]cytosine] |  | 2-3 months | 4-8 weeks | mild inflammation | the hair grew back
